According to patent US20090209536A1, “AMINOQUINAZOLINE CANNABINOID RECEPTOR MODULATORS FOR TREATMENT OF DISEASE” (KALYPSYS, INC., priority 2007, published 2009):
pEC50: −log10 of the molar value. Where two headings read alike, the source gives them in different places.

Assays:
[1] = target: T1, human cannabinoid receptor type 1 (Homo sapiens, UniProt P21554); assay: Human CB1 Radioligand Binding Assay (basis of selectivity, CB2 vs. CB1); conditions: CB1: HEK 293 EBNA cells expressing human CB1; CB2: CHO CB2 membranes
T1 construct: purchased Perkin Elmer RBHCB1M; host or cells: HEK 293 EBNA cells
T1 sequence (P21554 whole entry): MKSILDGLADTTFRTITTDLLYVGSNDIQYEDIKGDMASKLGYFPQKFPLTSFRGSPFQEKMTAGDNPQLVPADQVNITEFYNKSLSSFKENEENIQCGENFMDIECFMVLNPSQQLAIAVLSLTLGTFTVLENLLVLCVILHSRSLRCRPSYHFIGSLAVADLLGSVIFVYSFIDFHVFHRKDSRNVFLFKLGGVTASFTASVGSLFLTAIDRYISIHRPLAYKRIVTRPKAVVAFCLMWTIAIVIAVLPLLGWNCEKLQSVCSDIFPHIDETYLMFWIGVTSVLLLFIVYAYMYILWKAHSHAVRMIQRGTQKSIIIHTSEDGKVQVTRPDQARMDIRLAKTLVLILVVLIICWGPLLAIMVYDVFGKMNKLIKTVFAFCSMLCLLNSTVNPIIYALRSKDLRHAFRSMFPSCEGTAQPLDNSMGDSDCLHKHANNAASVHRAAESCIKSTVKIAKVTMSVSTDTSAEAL
Procedure: 2. Human CB1 Radioligand Binding Assay
The incubation buffer was composed of 50 mM Tris-HCl pH 7.4, 2.5 mM EDTA, 5 mM MgCl2, 5.0 mg/ml fatty acid free BSA and the wash buffer was composed of 50 mM Tris-HCl pH 7.4, 2.5 mM EDTA, 5 mM MgCl2, 0.5 mg/ml fatty acid free BSA.

[2] = target: T2, human cannabinoid receptor type 2 (Homo sapiens, UniProt P34972); assay: Human CB2 Radioligand Binding Assay; conditions: membranes from stably transfected CHO CB2 cells
T2 construct: expressed in transfected cells; membrane preparation
T2 sequence (P34972 whole entry): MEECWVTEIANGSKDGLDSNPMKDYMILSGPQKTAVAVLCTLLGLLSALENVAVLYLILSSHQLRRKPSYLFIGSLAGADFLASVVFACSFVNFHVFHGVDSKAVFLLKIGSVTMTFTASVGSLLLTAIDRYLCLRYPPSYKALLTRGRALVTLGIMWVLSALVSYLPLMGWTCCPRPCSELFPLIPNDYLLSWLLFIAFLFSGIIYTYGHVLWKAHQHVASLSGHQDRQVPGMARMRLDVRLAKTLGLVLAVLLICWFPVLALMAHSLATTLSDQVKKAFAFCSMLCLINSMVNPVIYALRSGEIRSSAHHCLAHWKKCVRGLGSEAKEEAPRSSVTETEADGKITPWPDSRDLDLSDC
Method in brief: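 Filtration competition binding on membranes from CHO cells stably expressing human CB2, with [3H]CP-55,940 at its lot-specific Kd, in 50 mM Tris-HCl pH 7.4, EGTA, MgCl2, 5 mg/ml BSA, 1% DMSO; 90 min at 30° C. Compounds at 10 uM single point or dose-response; bound radioactivity by scintillation, 100 nM CP-55,940 as 100% efficacy.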

[3] = competition with [3H] CP-55,940, read-out: CB2 Ligand Binding Asssay EC50
[4] = CB2 Ligand Binding Asssay EC50, competition with [3H] CP-55,940

Selectivity, CB2 vs. CB1 [1]	pEC50 [2, 3]	SMILES	pEC50 [2, 4]
+ (+ indicates > 10−fold)	> 6.00	Fc1ccccc1-c1nc(N2CCCC2)c2c(Cl)cccc2n1 [Example 239, 5-Chloro-2-(2-fluorophenyl)-4-(pyrrolidin-1-yl)quinazoline]	
+ (+ indicates > 10−fold)	> 6.00	CCN(CC)C(=O)c1ccc2nc(-c3ccccc3Cl)nc(N3CCN(C(C)=O)CC3)c2c1 [Example 316, 4-(4-Acetylpiperazin-1-yl)-2-(2-chlorophenyl)-N,N-diethylquinazoline-6-carboxamide]	
− (− indicates ≦ 10−fold)	< 6.00	CCOC(=O)N1CCN(c2nc(-c3ccccc3Cl)nc3cc(C(=O)O)ccc23)CC1 [Example 318, 2-(2-Chlorophenyl)-4-(4-(ethoxycarbonyl)piperazin-1-yl)quinazoline-7-carboxylic acid]	
+ (+ indicates > 10−fold)	> 6.00	COC(=O)N1CCN(c2nc(-c3ccccc3Cl)nc3cccc(Cl)c23)CC1 [Example 261, Methyl 4-(5-chloro-2-(2-chlorophenyl)quinazolin-4-yl)piperazine-1-carboxylate]	
− (− indicates ≦ 10−fold)	> 6.00	CC1CCN(c2nc(-c3ccccc3Cl)nc3ccc(C(=O)NC4CCCCC4)cc23)CC1 [Example 312, 2-(2-Chlorophenyl)-N-cyclohexyl-4-(4-methylpiperidin-1-yl)quinazoline-6-carboxamide]	
+ (+ indicates > 10−fold)	> 6.00	COc1ccc2nc(-c3ccc(C(C)(C)C)cc3)nc(N3CCCC3)c2c1 [Example 251, 2-(4-tert-Butylphenyl)-6-methoxy-4-(pyrrolidin-1-yl)quinazoline]	
− (− indicates ≦ 10−fold)	> 6.00	Cc1ccccc1Cc1nc(N2CCN(C)CC2)c2ccccc2n1 [Example 337, 2-(2-Methylbenzyl)-4-(4-methylpiperazin-1-yl)quinazoline]	
− (− indicates ≦ 10−fold)	< 6.00	COc1ccc2nc(-c3ccccc3F)nc(N3CCCC3)c2c1 [Example 276, 2-(2-Fluorophenyl)-6-methoxy-4-(pyrrolidin-1-yl)quinazoline]	
+ (+ indicates > 10−fold)	< 6.00	CCOC(=O)N1CCN(c2nc(Cc3ccccc3C)nc3ccccc23)CC1 [Example 340, Ethyl 4-(2-(2-methylbenzyl)quinazolin-4-yl)piperazine-1-carboxylate]	
+ (+ indicates > 10−fold)	< 6.00	CCOC(=O)N1CCN(c2nc(C(C)c3ccccc3C)nc3ccccc23)CC1 (stereo not shown) [Example 338, Ethyl 4-(2-(1-o-tolylethyl)quinazolin-4-yl)piperazine-1-carboxylate]	
− (− indicates ≦ 10−fold)	< 6.00	O=S(=O)(NCc1nc(N2CCOCC2)c2ccccc2n1)c1ccc(Cl)cc1Cl [Example 294, 2,4-Dichloro-N-((4-morpholinoquinazolin-2-yl)methyl)benzenesulfonamide]	
− (− indicates ≦ 10−fold)	> 6.00	CC(=O)N1CCN(c2nc(-c3ccccc3F)nc3ccc(Cl)cc23)CC1 [Example 271, 1-(4-(6-Chloro-2-(2-fluorophenyl)quinazolin-4-yl)piperazin-1-yl)ethanone]	
− (− indicates ≦ 10−fold)	< 6.00	COc1ccc(Cc2nc(N3CCCCC3)c3ccccc3n2)cc1OC [Example 335, 2-(3,4-Dimethoxybenzyl)-4-(piperidin-1-yl)quinazoline]	
− (− indicates ≦ 10−fold)	< 6.00	CCOC(=O)N1CCN(c2nc(-c3ccccc3F)nc3ccc(Cl)cc23)CC1 [Example 272, Ethyl 4-(6-chloro-2-(2-fluorophenyl)quinazolin-4-yl)piperazine-1-carboxylate]	

The remaining lines, values behind:

SMILES	Selectivity, CB2 vs. CB1 [1]	pEC50 [2, 3]	pEC50 [2, 4]
Clc1ccnc(N2CCN(c3nc(-c4ccccc4Cl)nc4ccccc34)CC2)n1 [Example 198]	− (− indicates ≦ 10−fold)	< 6.00	
CC(C)c1nc(N2CCCC2)c2ccccc2n1 [Example 145, 2-Isopropyl-4-pyrrolidin-1-ylquinazoline]	− (− indicates ≦ 10−fold)	< 6.00	
Cc1ccc(Cl)cc1N1CCN(c2nc(-c3ccccc3Cl)nc3ccccc23)CC1 [Example 67, 4-[4-(5-Chloro-2-methylphenyl)piperazin-1-yl]-2-(2-chlorophenyl) quinazoline]	− (− indicates ≦ 10−fold)	> 6.00	
CC(=O)N1CCN(c2nc(-c3ccc(Cl)cc3)nc3ccccc23)CC1 [Example 199, 1-(4-(2-(4-Chlorophenyl)quinazolin-4-yl)piperazin-1-yl)ethanone]	− (− indicates ≦ 10−fold)	< 6.00	
CN1CCN(c2nc(-c3ccc(OC(F)(F)F)cc3)nc3ccccc23)CC1 [Example 142, 4-(4-Methylpiperazin-1-yl)-2-(4-trifluoromethoxyphenyl)quinazoline]	− (− indicates ≦ 10−fold)	> 6.00	
Clc1ccc(-c2nc(N3CCCC3)c3ccccc3n2)c(Cl)c1 [Example 28, 2-(2,4-Dichlorophenyl)-4-pyrrolidin-1-ylquinazoline]	+ (+ indicates > 10−fold)	< 6.00	
CCS(=O)(=O)N1CCN(c2nc(-c3ccccc3Cl)nc3ccccc23)CC1 [Example 85, 2-(2-Chlorophenyl)-4-(4-(ethylsulfonyl)piperazin-1-yl)quinazoline]	− (− indicates ≦ 10−fold)		< 6.00
FC(F)(F)Oc1ccc(-c2nc(N3CCCCC3)c3ccccc3n2)cc1 [Example 140, 4-Piperidin-1-yl-2-(4-trifluoromethoxyphenyl)quinazoline]	− (− indicates ≦ 10−fold)	> 6.00	
COc1ccc2c(N3CCN(C)CC3)nc(C3CCCCC3)nc2c1 [Example 158, 2-Cyclohexyl-7-methoxy-4-(4-methylpiperazin-1-yl)quinazoline]	− (− indicates ≦ 10−fold)	< 6.00	
C[C@@H]1CN(c2nc(-c3ccccc3Cl)nc3ccccc23)C[C@H](C)N1C [Example 78, 2-(2-Chlorophenyl)-4-((3S,5R)-3,4,5-trimethylpiperazin-1-yl)quinazoline]	− (− indicates ≦ 10−fold)	> 6.00	
CC(=O)N1CCN(c2nc(-c3ccc(C(C)(C)C)cc3)nc3ccccc23)CC1 [Example 201, 1-(4-(2-(4-tert-Butylphenyl)quinazolin-4-yl)piperazin-1-yl)ethanone]	+ (+ indicates > 10−fold)	> 6.00	
c1ccc(CNc2nc(C3CCCCC3)nc3ccccc23)cc1 [Example 38, N-Benzyl-2-cyclohexylquinazolin-4-amine]	− (− indicates ≦ 10−fold)	< 6.00	
CN1CCN(c2nc(C3CCCC3)nc3ccccc23)CC1 [Example 138, 2-Cyclopentyl-4-(4-methylpiperazin-1-yl)quinazoline]	+ (+ indicates > 10−fold)	> 6.00	
CNC(=O)c1sccc1S(=O)(=O)NCc1nc(N2CCCC2)c2ccccc2n1 [Example 8, N-Methyl-3-(N-((4-(pyrrolidin-1-yl)quinazolin-2-yl)methyl)sulfamoyl)thiophene-2-carboxamide]	+ (+ indicates > 10−fold)	< 6.00	
c1ccc(-c2nc(N3CCCC3)c3ccccc3n2)cc1 [Example 48, 2-Phenyl-4-(pyrrolidin-1-yl)quinazoline]	− (− indicates ≦ 10−fold)	< 6.00	
FC(F)(F)c1ccc(Cc2nc(N3CCCCC3)c3ccccc3n2)cc1 [Example 195, 4-(Piperidin-1-yl)-2-(4-(trifluoromethyl)benzyl)quinazoline]	− (− indicates ≦ 10−fold)	< 6.00	
CC1(C)C(C(=O)N2CCN(c3nc(-c4ccccc4Cl)nc4ccccc34)CC2)C1(C)C [Example 100, (4-(2-(2-Chlorophenyl)quinazolin-4-yl)piperazin-1-yl)(2,2,3,3-tetramethylcyclopropyl)methanone]	− (− indicates ≦ 10−fold)		< 6.00
FC(F)(F)CN1CCN(c2nc(-c3ccccc3Cl)nc3ccccc23)CC1 [Example 104, 2-(2-chlorophenyl)-4-(4-(2,2,2-trifluoroethyl)piperazin-1-yl)quinazoline]	− (− indicates ≦ 10−fold)	> 6.00	
CCCc1nc(N2CCN(C)CC2)c2ccccc2n1 [Example 41, 4-(4-Methylpiperazin-1-yl)-2-propylquinazoline]	− (− indicates ≦ 10−fold)	< 6.00	
CN1CCN(c2nc(C3CCCCC3)nc3cc(Cl)ccc23)CC1 [Example 166, 7-Chloro-2-cyclohexyl-4-(4-methylpiperazin-1-yl)quinazoline]	+ (+ indicates > 10−fold)	> 6.00	
CN1CCN(c2nc(-c3ccccc3F)nc3ccccc23)CC1 [Example 152, 2-(2-Fluorophenyl)-4-(4-methylpiperazin-1-yl)quinazoline]	+ (+ indicates > 10−fold)	> 6.00	
